From PubChem BioAssay (NCI)
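Compound exposure: 48 hours, 5 concentrations, 96-well plates. The concentration for 50% growth inhibition is given as GI50. TGI is the concentration that stops growth completely.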

Tests used:
Experiment in all cases: NCI-60 cell line screen, 48 h
MALME-3M melanoma = tested on: MALME-3M melanoma
SK-MEL-2 melanoma = tested on: SK-MEL-2 melanoma
UACC-62 melanoma = tested on: UACC-62 melanoma
LXFL 529 NSCLC = tested on: LXFL 529 NSCLC
DLD-1 colon = tested on: DLD-1 colon
OVCAR-3 ovarian = tested on: OVCAR-3 ovarian
DMS 114 small cell lung = tested on: DMS 114 small cell lung
LOX IMVI melanoma = tested on: LOX IMVI melanoma
NCI/ADR-RES ovarian = tested on: NCI/ADR-RES ovarian
DU-145 prostate = tested on: DU-145 prostate
OVCAR-8 ovarian = tested on: OVCAR-8 ovarian
786-0 renal = tested on: 786-0 renal

Row | SMILES | TGI (MALME-3M melanoma) | TGI (SK-MEL-2 melanoma) [µM] | TGI (UACC-62 melanoma) | TGI (LXFL 529 NSCLC) [µM] | TGI (DLD-1 colon) [µM] | TGI (OVCAR-3 ovarian) | TGI (DMS 114 small cell lung) [µM] | TGI (LOX IMVI melanoma) | GI50 (MALME-3M melanoma) | GI50 (SK-MEL-2 melanoma) [µM] | GI50 (UACC-62 melanoma) | GI50 (NCI/ADR-RES ovarian) | TGI (NCI/ADR-RES ovarian) | GI50 (OVCAR-3 ovarian) | GI50 (LOX IMVI melanoma) | GI50 (DU-145 prostate) | TGI (DU-145 prostate) | GI50 (OVCAR-8 ovarian) | TGI (OVCAR-8 ovarian) | TGI (786-0 renal) [µM]
1 | Clc1ccccc1/C=C/c1cscn1 | > 100 µM | > 100 | > 100 µM | > 100 | > 100 | > 100 µM | > 100 | > 100 µM | – | – | – | – | – | – | – | – | – | – | – | –
2 | O=S1(=O)N(CCNc2nccc(-c3c(-c4cccc(O)c4)nc4sccn34)n2)CCN1Cc1ccccc1 | > 50 µM | 4.59 | 5.29 µM | – | – | > 50 µM | – | 16.2 µM | 0.108 µM | 1.55 | 0.136 µM | 14.1 µM | > 50 µM | 6.23 µM | 2.57 µM | 8.1 µM | 26.1 µM | 4.88 µM | > 50 µM | –
3 | CCOC(=O)CN=C1NNS(=O)(=O)c2ccccc21 | > 100 µM | – | > 100 µM | – | – | > 100 µM | – | > 100 µM | – | – | – | – | > 100 µM | – | – | – | > 100 µM | – | > 100 µM | > 100
4 | O=C1NN(C2=NNC3(C(=O)N2)c2ccccc2-c2ccccc23)C(c2ccccc2)=N/C1=C/c1ccc(O)cc1 | 15 µg/mL | – | 92.2 µg/mL | – | – | > 150 µg/mL | – | 71.3 µg/mL | 15 µg/mL | – | 33.5 µg/mL | 50.9 µg/mL | > 150 µg/mL | 55.1 µg/mL | 32.2 µg/mL | 90.8 µg/mL | > 150 µg/mL | 65.9 µg/mL | > 150 µg/mL | –
5 | COc1cc(/C=C2\CCCC3=C2NC(C)=NC3c2cc(OC)c(OC)c(OC)c2)cc(OC)c1OC (stereo unspecified) | 4.76 µM | – | – | – | – | > 100 µM | – | – | 1.6 µM | – | – | 0.505 µM | > 100 µM | 2.65 µM | – | 1.53 µM | > 100 µM | 0.372 µM | > 100 µM | –
6 | NCCCCC(N)C(=O)NCCNc1ccc(NCCNC(=O)C(N)CCCCN)c2c1C(=O)c1ccccc1C2=O (stereo unspecified) | > 100 µM | > 100 | > 100 µM | – | – | > 100 µM | – | > 100 µM | – | – | – | – | > 100 µM | – | – | – | > 100 µM | – | > 69 µM | > 100
7 | C=CC1(C)CCC2=C(CCC3C(C)(C(=O)OC)CCCC23C)C1=O (stereo unspecified) | 32.8 µM | 33.9 | 33.7 µM | 36.4 | 36.5 | 35.3 µM | 32.7 | 34.3 µM | – | – | – | – | – | – | – | – | – | – | > 100 µM | –
8 | O=C(N/N=C\c1cccc(O)c1)c1ccncc1 | > 100 µM | > 100 | > 100 µM | – | – | > 100 µM | – | > 100 µM | – | – | – | – | > 100 µM | – | – | – | > 100 µM | – | > 100 µM | > 100
9 | Cn1c(=O)c2[nH]c(CCCCC(=O)O)nc2n(C)c1=O | > 100 µM | > 100 | > 100 µM | – | – | > 100 µM | – | > 100 µM | – | – | – | – | > 100 µM | – | – | – | > 100 µM | – | > 100 µM | > 100
10 | Cc1cc(O)c(C(C)(C)C)cc1Sc1cc(C(C)(C)C)c(O)cc1C | 5.71 µM | 4.51 | 3.11 µM | – | – | 5.45 µM | – | 3.64 µM | 2.32 µM | 2.46 | 1.32 µM | 2.78 µM | 7.58 µM | 2.23 µM | 1.97 µM | 3.69 µM | 13.2 µM | 3.82 µM | 15.4 µM | –
11 | CCOC(=O)C(O)(NC(=O)c1ccc(F)cc1)C(F)(F)F (stereo unspecified) | > 100 µM | > 100 | > 100 µM | – | – | > 100 µM | – | > 100 µM | – | – | – | – | > 100 µM | – | – | – | > 100 µM | – | > 100 µM | –
